Results reported in PubChem BioAssay (NCI).
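Tested at 5 concentrations; 48 h exposure; 96-well plates; endpoints linearly interpolated, else capped at highest concentration. GI50 marks 50% less growth. TGI is the concentration that stops growth completely.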

What was measured:
Test in all cases: growth of human tumour cells (NCI), 48 h
[1] = test system: HCT-15 colon
[2] = test system: NCI-H226 lung
[3] = test system: SF-539 CNS
[4] = test system: NCI/ADR-RES ovarian
[5] = test system: MDA-MB-435
[6] = test system: OVCAR-8 ovarian
[7] = test system: NCI-H23 lung
[8] = test system: RPMI-8226 leukemia
[9] = test system: OVCAR-3 ovarian
[10] = test system: HCT-116 colon
[11] = test system: SW-620 colon
[12] = test system: NCI-H460 lung
[13] = test system: MOLT-4 leukemia
[14] = test system: SN12C renal
[15] = test system: A549 NSCLC
[16] = test system: NCI-H522 lung
[17] = test system: UACC-257 melanoma
[18] = test system: A498 renal
[19] = test system: 786-0 renal
[20] = test system: U251 CNS
[21] = test system: PC-3 prostate
[22] = test system: UACC-62 melanoma
[23] = test system: COLO 205 colon
[24] = test system: SNB-19 CNS
[25] = test system: OVCAR-5 ovarian
[26] = test system: SK-MEL-2 melanoma
[27] = test system: SR leukemia
[28] = test system: KM12 colon
[29] = test system: M14 melanoma
[30] = test system: MCF7 breast
[31] = test system: HS 578T breast
[32] = test system: MDA-MB-231 breast
[33] = test system: HL-60(TB) leukemia
[34] = test system: DU-145 prostate
[35] = test system: ACHN renal
[36] = test system: UO-31 renal
[37] = test system: K-562 leukemia
[38] = test system: T-47D breast
[39] = test system: EKVX NSCLC
[40] = test system: SNB-75 CNS
[41] = test system: SK-MEL-28 melanoma
[42] = test system: HT29 colon
[43] = test system: HOP-62 NSCLC
[44] = test system: OVCAR-4 ovarian
[45] = test system: SK-MEL-5 melanoma
[46] = test system: SF-268 CNS
[47] = test system: HCC-2998 colon
[48] = test system: BT-549 breast
[49] = test system: CCRF-CEM leukemia
[50] = test system: RXF 393 renal
[51] = test system: CAKI-1 renal
[52] = test system: TK-10 renal
[53] = test system: SK-OV-3 ovarian
[54] = test system: LOX IMVI melanoma
[55] = test system: MALME-3M melanoma
[56] = test system: IGROV1 ovarian
[57] = test system: HOP-92 NSCLC
[58] = test system: SF-295 CNS

COc1cccc2c1C(=N)c1c(O)c3c(c(O)c1C2=O)C[C@@](O)(C(C)=O)C[C@@H]3O[C@H]1C[C@H](N)[C@H](O)[C@H](C)O1
GI50 [1]: 2530 nM
TGI [1]: 18.2 µM
GI50 [2]: 167 nM
TGI [2]: 1400 nM
GI50 [3]: 174 nM
TGI [3]: 1480 nM
GI50 [4]: 45.3 µM
TGI [4]: > 100 µM
GI50 [5]: 1660 nM
TGI [5]: 8.91 µM
GI50 [6]: 327 nM
TGI [6]: 1950 nM
GI50 [7]: 233 nM
TGI [7]: 1160 nM
GI50 [8]: 255 nM
TGI [8]: 4.03 µM
GI50 [9]: 1130 nM
TGI [9]: 7.11 µM
GI50 [10]: 277 nM
TGI [10]: 6.6 µM
TGI [11]: 3.65 µM
GI50 [12]: 47.2 nM
TGI [12]: 833 nM
GI50 [13]: 42.8 nM
TGI [13]: 2890 nM
GI50 [14]: 224 nM
TGI [14]: 1210 nM
GI50 [15]: 155 nM
TGI [15]: 1580 nM
GI50 [16]: 256 nM
TGI [16]: 1500 nM
GI50 [17]: 1340 nM
TGI [17]: 8.99 µM
GI50 [18]: 1500 nM
TGI [18]: 5.86 µM
GI50 [19]: 254 nM
TGI [19]: 4.28 µM
GI50 [20]: 144 nM
TGI [20]: 2140 nM
GI50 [21]: 1300 nM
TGI [21]: 9.33 µM
GI50 [22]: 248 nM
TGI [22]: 1790 nM
TGI [23]: 3.16 µM
GI50 [24]: 232 nM
TGI [24]: 2920 nM
GI50 [25]: 512 nM
TGI [25]: 5.68 µM
GI50 [26]: 2280 nM
TGI [26]: 4.95 µM
GI50 [27]: 21.7 nM
TGI [27]: 6.08 µM
GI50 [28]: 1320 nM
TGI [28]: 8.68 µM
GI50 [29]: 496 nM
TGI [29]: 4.78 µM
GI50 [30]: 37.9 nM
TGI [30]: 5.2 µM
GI50 [31]: 1660 nM
TGI [31]: 8.31 µM
GI50 [32]: 1260 nM
TGI [32]: 7.74 µM
GI50 [33]: 112 nM
TGI [33]: 2360 nM
GI50 [34]: 292 nM
TGI [34]: 1720 nM
GI50 [35]: 419 nM
TGI [35]: 3.1 µM
GI50 [36]: 2240 nM
TGI [36]: 19.9 µM
GI50 [37]: 322 nM
TGI [37]: 10.9 µM
GI50 [38]: 240 nM
TGI [38]: 4.17 µM
GI50 [39]: 2530 nM
TGI [39]: 12.6 µM
GI50 [40]: 159 nM
TGI [40]: 2080 nM
GI50 [41]: 2580 nM
TGI [41]: 13.9 µM
GI50 [42]: 316 nM
TGI [42]: 2090 nM
GI50 [43]: 152 nM
TGI [43]: 1370 nM
TGI [44]: 7.68 µM
GI50 [45]: 523 nM
TGI [45]: 2170 nM
GI50 [46]: 339 nM
TGI [46]: 3.62 µM
GI50 [47]: 474 nM
TGI [47]: 2510 nM
GI50 [48]: 813 nM
TGI [48]: 4.58 µM
GI50 [49]: 82.9 nM
TGI [49]: 3.76 µM
TGI [50]: 3.58 µM
GI50 [51]: 445 nM
TGI [51]: 4.07 µM
TGI [52]: 3.19 µM
GI50 [53]: 288 nM
TGI [53]: 2600 nM
GI50 [54]: 178 nM
TGI [54]: 1490 nM
GI50 [55]: 391 nM
TGI [55]: 3.24 µM
GI50 [56]: 645 nM
TGI [56]: 6.25 µM
TGI [57]: 7.35 µM
GI50 [58]: 219 nM
TGI [58]: 1270 nM
